Reference: US20240294522A1 (Lead Discovery Center GmbH, priority 2021, published 2024)

Assays:
GRK2 = molecular target: T1, GRK2 (Homo sapiens, UniProt P25098); assay: Lance Kinase Activity Assay, GRK2; settings: biochemical Lance kinase activity assay; class symbols A-F; read-out: GRK2 LANCE Assay (IC-50)
T1 construct: purchased Thermo Scientific
T1 sequence (P25098 1-689): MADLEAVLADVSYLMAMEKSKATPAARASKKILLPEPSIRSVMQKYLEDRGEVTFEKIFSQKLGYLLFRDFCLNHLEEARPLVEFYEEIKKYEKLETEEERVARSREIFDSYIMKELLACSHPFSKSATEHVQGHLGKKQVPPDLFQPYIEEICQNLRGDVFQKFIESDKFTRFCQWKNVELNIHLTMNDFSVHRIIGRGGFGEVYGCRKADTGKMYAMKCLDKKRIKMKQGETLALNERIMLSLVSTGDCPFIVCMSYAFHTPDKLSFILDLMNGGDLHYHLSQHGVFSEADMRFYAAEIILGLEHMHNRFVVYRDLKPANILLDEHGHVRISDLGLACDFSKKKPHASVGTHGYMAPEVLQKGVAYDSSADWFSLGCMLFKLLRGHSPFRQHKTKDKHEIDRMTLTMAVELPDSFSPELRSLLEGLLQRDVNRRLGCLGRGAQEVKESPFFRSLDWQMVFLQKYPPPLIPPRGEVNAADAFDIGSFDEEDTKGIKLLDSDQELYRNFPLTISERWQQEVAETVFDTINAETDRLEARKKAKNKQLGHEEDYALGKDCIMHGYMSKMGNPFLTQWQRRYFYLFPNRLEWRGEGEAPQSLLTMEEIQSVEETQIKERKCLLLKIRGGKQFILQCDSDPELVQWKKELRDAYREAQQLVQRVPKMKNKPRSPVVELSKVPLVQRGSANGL
Experimental: (§1) This protocol describes how the Lance Kinase Activity Assay was performed to determine IC50 values of compounds of general formula (I) against GRK5 and GRK2.
(§2) The principle behind this enzymatic assay is based upon the phosphorylation of the Ulight-peptide substrate. It is detected by using a specific EU-labeled anti-phospho peptide antibody. The binding of the Eu labeled anti-phospho peptide antibody to the phosphorylated ULight labeled peptide gives rise to a FRET-signal. Binding of an inhibitor to the kinase prevents phosphorylation of the Ulight-substrate, resulting in a loss of FRET. In tables 2 and 3 the relevant information for these two LANCE assays is summarized.
(§3) For every sample, 2 μl of assay buffer (50 mM HEPES pH 7,5, 10 mM MgCL2, 1 mM EGTA 0,01% Tween 20, 1% DMSO, 2 mM DTT) were transferred into a suitable assay plate (e.g. Corning #3673). Compounds were added in a concentration range from 10 μM to 0.0025 μM using an acoustic dispenser (Echo520 from Labcycte, San Jose, USA) equipped with Echo Dose Response software. After that 6 μl of kinase-substrate mix was added. Reaction was started by addition of 2 μl ATP working solution and mixed using a Bioshake 5000 microplate shaker (Q Instruments, Jena, Germany).
(§4) After 1 h incubation at room temperature the reaction was stopped with 10 μl detection mix containing the Eu-labeled phosphospecific antibody and 10 mM EDTA. After a second incubation period of 1 h at room temperature the FRET signal was measured at 340 nm excitation, 665 nm and 615 nm emission (for the ULight-substrate and Eu-AB, respectively) with an Envision microplate reader (Perkin Elmer, Waltham, MA, USA) with 50 μs delay and 300 μs integration time. IC50 values were determined from the sigmoidal dose response curves with the software Quattro Workflow (Quattro GmbH, Munich, Germany).
(§5) Inhibition is indicated as IC50 [nM] (“−”=not measured). Compounds having an activity designated as “A” provided an IC50≤50 nM; compounds having an activity designated as “B” provided an 50 nM<IC50≤100 nM; compounds having an activity designated as “C” provided an 100 nM<IC50≤500 nM; compounds having an activity designated as “D” provided an 500 nM<IC50≤1000 nM; compounds having an activity designated as “E” provided an 1000 nM<IC50≤10000 nM; and compounds having an activity designated as “F” provided an IC50>10000 nM.

GRK5 = molecular target: T2, GRK5 (Homo sapiens, UniProt P34947); assay: Lance Kinase Activity Assay, GRK5; settings: biochemical Lance kinase activity assay; class symbols A-F; read-out: GRK5 LANCE Assay (IC-50)
T2 construct: purchased Thermo Scientific
T2 sequence (P34947 whole entry): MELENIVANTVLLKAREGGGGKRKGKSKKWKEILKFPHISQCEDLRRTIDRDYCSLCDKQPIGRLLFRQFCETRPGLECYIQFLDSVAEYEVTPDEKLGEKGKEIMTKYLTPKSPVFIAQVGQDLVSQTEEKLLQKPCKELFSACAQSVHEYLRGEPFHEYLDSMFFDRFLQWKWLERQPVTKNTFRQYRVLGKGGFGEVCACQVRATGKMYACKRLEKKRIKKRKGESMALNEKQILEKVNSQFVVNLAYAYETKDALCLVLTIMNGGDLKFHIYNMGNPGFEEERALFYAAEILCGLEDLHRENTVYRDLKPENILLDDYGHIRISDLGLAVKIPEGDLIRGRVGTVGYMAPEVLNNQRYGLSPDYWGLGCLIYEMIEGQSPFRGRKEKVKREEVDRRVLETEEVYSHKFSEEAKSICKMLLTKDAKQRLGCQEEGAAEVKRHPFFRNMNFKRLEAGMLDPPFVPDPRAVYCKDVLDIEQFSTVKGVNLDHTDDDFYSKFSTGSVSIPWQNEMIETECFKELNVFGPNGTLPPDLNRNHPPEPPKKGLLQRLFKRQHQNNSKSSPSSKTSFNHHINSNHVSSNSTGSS
Experimental: as §1, §2, §3, §4, §5

`COc1cccc([C@@H](C)NC(=O)/C(C#N)=C/c2c[nH]c3ncccc23)c1` [Example 33, (R,E)-2-cyano-N-(1-(3-methoxyphenyl)ethyl)-3-(1H-pyrrolo[2,3-b]pyridin-3-yl)acrylamide] was tested, and the IC50 (GRK2) was no more than 0.05 µM and the IC50 (GRK5) was no more than 0.05 µM.

With `CC(=O)Nc1cccc(CNC(=O)/C(C#N)=C/c2c[nH]c3ncccc23)c1` [Example 34, (E)-N-(3-acetamidobenzyl)-2-cyano-3-(1H-pyrrolo[2,3-b]pyridin-3-yl)acrylamide] the IC50 (GRK2) was no more than 0.05 µM and the IC50 (GRK5) was 0.1 to 0.5 µM.

For `N#C/C(=C\c1c[nH]c2ncccc12)C(=O)NCc1ccccc1C#N` [Example 35, (E)-2-cyano-N-(2-cyanobenzyl)-3-(1H-pyrrolo[2,3-b]pyridin-3-yl)acrylamide], the IC50 (GRK2) was 1 to 10 µM and the IC50 (GRK5) was 0.1 to 0.5 µM.

With `COc1ccc(CNC(=O)/C(C#N)=C/c2c[nH]c3ncccc23)cc1S(N)(=O)=O` [Example 36, (E)-2-cyano-N-(4-methoxy-3-sulfamoylbenzyl)-3-(1H-pyrrolo[2,3-b]pyridin-3-yl)acrylamide] the IC50 (GRK2) was 1 to 10 µM and the IC50 (GRK5) was 0.1 to 0.5 µM.

`N#C/C(=C\c1c[nH]c2ncccc12)C(=O)NCc1ccccc1CN1CCOCC1` [Example 37, (E)-2-cyano-N-(2-(morpholinomethyl)benzyl)-3-(1H-pyrrolo[2,3-b]pyridin-3-yl)acrylamide] was tested, and the IC50 (GRK2) was greater than 10 µM and the IC50 (GRK5) was 1 to 10 µM.

`CC(NC(=O)/C(C#N)=C/c1c[nH]c2ncccc12)c1ccccc1-n1cccn1` (centres unmarked) [Example 38, (E)-N-(1-(2-(1H-pyrazol-1-yl)phenyl)ethyl)-2-cyano-3-(1H-pyrrolo[2,3-b]pyridin-3-yl)acrylamide] was tested, and the IC50 (GRK2) was 1 to 10 µM and the IC50 (GRK5) was 1 to 10 µM.

For `CS(=O)(=O)c1ccccc1CNC(=O)/C(C#N)=C/c1c[nH]c2ncccc12` [Example 39, (E)-2-cyano-N-(2-(methylsulfonyl)benzyl)-3-(1H-pyrrolo[2,3-b]pyridin-3-yl)acrylamide], the IC50 (GRK2) was 1 to 10 µM and the IC50 (GRK5) was 0.1 to 0.5 µM.

`N#C/C(=C\c1c[nH]c2ncccc12)C(=O)N[C@H](CCO)c1ccccc1` [Example 40, (R,E)-2-cyano-N-(3-hydroxy-1-phenylpropyl)-3-(1H-pyrrolo[2,3-b]pyridin-3-yl)acrylamide] gave an IC50 (GRK2) of 0.1 to 0.5 µM and an IC50 (GRK5) of 0.1 to 0.5 µM.

Work on `N#C/C(=C\c1c[nH]c2ncccc12)C(=O)NCc1ccccc1S(=O)(=O)N1CCOCC1` [Example 41, (E)-2-cyano-N-(2-(morpholinosulfonyl)benzyl)-3-(1H-pyrrolo[2,3-b]pyridin-3-yl)acrylamide] yielded an IC50 (GRK2) of 1 to 10 µM and an IC50 (GRK5) of 0.1 to 0.5 µM.

Work on `CS(=O)(=O)Nc1ccccc1CNC(=O)/C(C#N)=C/c1c[nH]c2ncccc12` [Example 42, (E)-2-cyano-N-(2-(methylsulfonamido)benzyl)-3-(1H-pyrrolo[2,3-b]pyridin-3-yl)acrylamide] yielded an IC50 (GRK2) of 1 to 10 µM and an IC50 (GRK5) of 0.5 to 1 µM.

In the case of `CNS(=O)(=O)c1ccccc1CNC(=O)/C(C#N)=C/c1c[nH]c2ncccc12` [Example 43, (E)-2-cyano-N-(2-(N-methylsulfamoyl)benzyl)-3-(1H-pyrrolo[2,3-b]pyridin-3-yl)acrylamide], the IC50 (GRK2) is reported as 1 to 10 µM and the IC50 (GRK5) is reported as 0.1 to 0.5 µM.

`N#C/C(=C\c1c[nH]c2ncccc12)C(=O)NCc1ccccc1CN1CCCC1=O` [Example 44, (E)-2-cyano-N-(2-((2-oxopyrrolidin-1-yl)methyl)benzyl)-3-(1H-pyrrolo[2,3-b]pyridin-3-yl)acrylamide] showed an IC50 (GRK2) of 1 to 10 µM and an IC50 (GRK5) of 1 to 10 µM.

`N#C/C(=C\c1c[nH]c2ncccc12)C(=O)NCc1cccc2[nH]ncc12` [Example 45, (E)-N-((1H-indazol-4-yl)methyl)-2-cyano-3-(1H-pyrrolo[2,3-b]pyridin-3-yl)acrylamide] was tested, and the IC50 (GRK2) was 1 to 10 µM and the IC50 (GRK5) was 0.5 to 1 µM.

Molecule `N#C/C(=C\c1c[nH]c2ncccc12)C(=O)NCc1cccc(N2CCOCC2)c1` [Example 46, (E)-2-cyano-N-(3-morpholinobenzyl)-3-(1H-pyrrolo[2,3-b]pyridin-3-yl)acrylamide] has an IC50 (GRK2) greater than 10 µM and an IC50 (GRK5) of 1 to 10 µM.

With `N#C/C(=C\c1c[nH]c2ncccc12)C(=O)NC(c1cccc(Br)c1)C(F)(F)F` (centres unmarked) [Example 47, (E)-N-(1-(3-bromophenyl)-2,2,2-trifluoroethyl)-2-cyano-3-(1H-pyrrolo[2,3-b]pyridin-3-yl)acrylamide] the IC50 (GRK2) was greater than 10 µM and the IC50 (GRK5) was 1 to 10 µM.

With `CN(C)CCC(NC(=O)/C(C#N)=C/c1c[nH]c2ncccc12)c1ccccc1` (centres unmarked) [Example 48, (E)-2-cyano-N-(3-(dimethylamino)-1-phenylpropyl)-3-(1H-pyrrolo[2,3-b]pyridin-3-yl)acrylamide] the IC50 (GRK2) was 0.05 to 0.1 µM and the IC50 (GRK5) was no more than 0.05 µM.

Molecule `N#C/C(=C\c1c[nH]c2ncccc12)C(=O)NC(C#N)c1ccccc1` (centres unmarked) [Example 49, (E)-2-cyano-N-(cyano(phenyl)methyl)-3-(1H-pyrrolo[2,3-b]pyridin-3-yl)acrylamide] has an IC50 (GRK2) greater than 10 µM and an IC50 (GRK5) of 1 to 10 µM.

Work on `CN(C)CC(NC(=O)/C(C#N)=C/c1c[nH]c2ncccc12)c1ccccc1` (centres unmarked) [Example 50, (E)-2-cyano-N-(2-(dimethylamino)-1-phenylethyl)-3-(1H-pyrrolo[2,3-b]pyridin-3-yl)acrylamide] yielded an IC50 (GRK2) of 0.1 to 0.5 µM and an IC50 (GRK5) of 0.1 to 0.5 µM.

`COc1ccc(C(CCN(C)C)NC(=O)/C(C#N)=C/c2c[nH]c3ncccc23)cc1` (centres unmarked) [Example 51, (E)-2-cyano-N-(3-(dimethylamino)-1-(4-methoxyphenyl)propyl)-3-(1H-pyrrolo[2,3-b]pyridin-3-yl)acrylamide] showed an IC50 (GRK2) of 0.5 to 1 µM and an IC50 (GRK5) of no more than 0.05 µM.

In the case of `CCN(CC)CCC(NC(=O)/C(C#N)=C/c1c[nH]c2ncccc12)c1ccccc1` (centres unmarked) [Example 52, (E)-2-cyano-N-(3-(diethylamino)-1-phenylpropyl)-3-(1H-pyrrolo[2,3-b]pyridin-3-yl)acrylamide], the IC50 (GRK2) is reported as 0.1 to 0.5 µM and the IC50 (GRK5) is reported as 0.1 to 0.5 µM.

`COc1ccc([C@@H](CO)NC(=O)/C=C/c2c[nH]c3ncc(C)cc23)cc1OC` [Example 53, (S,E)-N-(1-(3,4-dimethoxyphenyl)-2-hydroxyethyl)-3-(5-methyl-1H-pyrrolo[2,3-b]pyridin-3-yl)acrylamide] showed an IC50 (GRK2) of 1 to 10 µM and an IC50 (GRK5) of no more than 0.05 µM.

Molecule `COc1cc([C@@H](C)NC(=O)/C=C/c2c[nH]c3ncc(C)cc23)ccc1F` [Example 54, (R,E)-N-(1-(4-fluoro-3-methoxyphenyl)ethyl)-3-(5-methyl-1H-pyrrolo[2,3-b]pyridin-3-yl)acrylamide] has an IC50 (GRK2) of no more than 0.05 µM and an IC50 (GRK5) of no more than 0.05 µM.

For `COc1ccc([C@@H](C)NC(=O)/C=C/c2c[nH]c3ncc(OC4CCS(=O)(=O)CC4)cc23)cc1OC` [Example 55, (R,E)-N-(1-(3,4-dimethoxyphenyl)ethyl)-3-(5-((1,1-dioxidotetrahydro-2H-thiopyran-4-yl)oxy)-1H-pyrrolo[2,3-b]pyridin-3-yl)acrylamide], the IC50 (GRK2) was greater than 10 µM and the IC50 (GRK5) was no more than 0.05 µM.

`COc1ccc([C@@H](C)NC(=O)/C=C/c2c[nH]c3ncc(OCCN(C)C)cc23)cc1OC` [Example 56, (R,E)-N-(1-(3,4-dimethoxyphenyl)ethyl)-3-(5-(2-(dimethylamino)ethoxy)-1H-pyrrolo[2,3-b]pyridin-3-yl)acrylamide] gave an IC50 (GRK2) greater than 10 µM and an IC50 (GRK5) of 0.05 to 0.1 µM.

In the case of `N#C/C(=C\c1c[nH]c2ncccc12)C(=O)NCc1ccc(F)cc1` [Example 57, (E)-2-cyano-N-(4-fluorobenzyl)-3-(1H-pyrrolo[2,3-b]pyridin-3-yl)acrylamide], the IC50 (GRK2) is reported as 1 to 10 µM and the IC50 (GRK5) is reported as 0.1 to 0.5 µM.
